Laboratory results reported in patent US12551500B2, “C6′-substituted locked nucleic acid-modified cap analog and use thereof” (Hangzhou Tianlong Pharmaceutical Co., Ltd., priority 2024, dated 2026).

Experiments:
[1] = Characterization of lipid nanoparticles encapsulating Fluc-mRNA; assay type: physicochemical; settings: for Particle size: LNP (YK-009/DSPC/cholesterol/DMG-PEG2000) encapsulating Fluc-mRNA transcribed using the cap analog; for PDI: LNP encapsulating Fluc-mRNA transcribed using the cap analog; for EE: encapsulation efficiency of LNP encapsulating Fluc-mRNA transcribed using the cap analog
Description: Cationic lipid YK-009 (Beijing Youcare Kechuang Pharmaceutical Technology Co., Ltd.), DSPC (AVT (Shanghai) Pharmaceutical Technology Co., Ltd.), cholesterol (AVT (Shanghai) Pharmaceutical Technology Co., Ltd.), and DMG-PEG2000 were dissolved in ethanol at a molar ratio of 49:10:39.5:1.5, and the mRNA was diluted in 50 mM citrate buffer (pH=4). The ethanol lipid solution was mixed with the Fluc-mRNA aqueous solution prepared from different cap structures at a volume ratio of 1:3 using a microfluidic device at a flow rate of 10 mL/min to prepare LNPs at a weight ratio of total lipid to mRNA of approximately 15:1. The resulting liposomes were diluted to 10-fold volume with PBS, and then ultrafiltered with a 300 KDa ultrafiltration tube to remove ethanol. The volume was then fixed to a certain volume with PBS. Finally, the LNPs were filtered through a 0.2 μm sterile filter to obtain an LNP preparation encapsulating Fluc-mRNA using YK-009/DSPC/cholesterol/DMG-PEG2000 (at a molar ratio of 49:10:39.5:1.5).
The particle size and polydispersity index (PDI) were determined by dynamic light scattering using a Malvern laser particle size analyzer. 10 μL of the liposome solution was taken, diluted to 1 mL with RNase-free deionized water, and added to a sample pool. Each sample was measured in triplicate. The measurement conditions were: a scattering angle of 90° and a temperature of 25° C. The encapsulation efficiency of LNPs was determined using the Quant-iT RiboGreen RNA Quantification Kit (Thermo Fisher Scientific, UK) according to the manufacturer's instructions.

DCP2 enzyme = biological target: T1, DCP2 enzyme (Schizosaccharomyces pombe, UniProt O13828); assay: Decapping enzyme stability test; assay type: biochemical; settings: 30 pmol RNA, 50 U mRNA decapping enzyme, 37° C., 45 minutes
T1 construct: purchased New England Biolabs
T1 sequence (O13828 1-243 limits assumed): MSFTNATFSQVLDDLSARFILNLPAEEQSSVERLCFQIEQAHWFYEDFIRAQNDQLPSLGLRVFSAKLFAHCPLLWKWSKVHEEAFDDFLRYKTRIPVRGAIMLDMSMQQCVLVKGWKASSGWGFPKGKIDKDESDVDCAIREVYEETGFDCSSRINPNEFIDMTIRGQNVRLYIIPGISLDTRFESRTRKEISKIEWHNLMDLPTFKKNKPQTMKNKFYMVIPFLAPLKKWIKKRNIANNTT
T1 sequence (Q9P805 1-127 partner): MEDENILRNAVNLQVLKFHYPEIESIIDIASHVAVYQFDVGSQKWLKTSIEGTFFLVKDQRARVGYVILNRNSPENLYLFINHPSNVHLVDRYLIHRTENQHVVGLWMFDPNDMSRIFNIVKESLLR
T1 sequence (Q10108 155-180 partner limits assumed): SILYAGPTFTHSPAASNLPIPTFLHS
Description: 30 pmol of RNAs purified by polyacrylamide gel electrophoresis (PAGE) was subjected to an enzymatic reaction with 50 U of mRNA decapping enzyme (New England Biolabs) and 1×MDE buffer at 37° C. for 45 minutes. The enzymatic reactants were subjected to PAGE and stained with SYBR Green II (Lonza), followed by observation of the post-electrophoresis gel image on a Typhoon FLA 7000 (GE Healthcare) instrument. The electrophoresis band intensity ratio of RNA capping to RNA decapping was counted using ImageQuant (GE Healthcare) software, and the decapping rate of the decapping enzyme was calculated (as shown in Table 6).

T7 RNA polymerase [2] = biological target: T2, T7 RNA polymerase (Escherichia phage T7, UniProt P00573); assay: Capping rate of in vitro transcribed mRNA by LC-MS; assay type: biochemical; settings: mRNA transcribed with the cap analog, LC-MS
Description: (§1) YK-CAP-001 to 006 and compound 14 in Table 1 were respectively used as cap analogs.
(§2) During the experiment, the volume of materials required for the system was first calculated, and then sample addition was conducted. The system was first added with sterile enzyme-free water, followed by the sequential addition of 10× buffer, NTPs, and cap analogs, mixed well, and gently centrifuged. Nuclease inhibitors, inorganic pyrophosphatase, T7 RNA polymerase, and linearized DNA templates were then added thereto. The system was mixed well, gently centrifuged, and incubated at 37° C. After 2 hours of incubation, the system was added with 1 U of DNase I and incubated at 37° C. for another 30 minutes. The mRNA precipitate was then washed with 75% ethanol, and after the ethanol was briefly evaporated to dryness, the mRNA was redissolved in sterile enzyme-free water.
(4) The obtained mRNA was subjected to an annealing reaction with a probe.
The annealing reaction was performed in a PCR instrument: 95° C. for 5 minutes; 65° C. for 2 minutes; 55° C. for 2 minutes; 40° C. for 2 minutes; 22° C. for 2 minutes.
(5) Magnetic bead pretreatment and probe binding: 100 μL of magnetic beads was placed on a magnetic frame for pretreatment. The magnetic bead solution was added with 120 μL of sample and incubated at room temperature for 30 minutes with slow mixing.
(6) mRNA splicing and obtaining the 5′ single-strand sequence bound to the probe
The mixture was added with 20 μL of RNase H (5 U/μL) and incubated at 37° C. for 3 hours with mixing every half hour. After incubation, the magnetic beads were washed and then added with 100 μL of 75% methanol heated to 80° C. The mixture was heated to 80° C. on a heating plate, held for 3 minutes, then placed on a magnetic frame to aspirate the supernatant, and dried at room temperature for 45 minutes to a volume of 10 μL using a centrifugal evaporator. The sample was then resuspended in 50 μL of 100 μM EDTA/1% MeOH and ready for LC-MS analysis to determine the capping of RNA in the transcription reaction. Since there is a significant difference in molecular weight between capped and uncapped bases, the capping rate of mRNA transcription initiated by different cap analogs can be determined based on the difference in molecular mass.

BALB/C mice = assay: In vivo imaging of protein expressed by LNP-carrying Fluc-mRNA in mice; settings: female BALB/C mice
Description: The LNP preparation containing […] of Fluc-mRNAs transcribed using the cap analogs YK-CAP-001 to 006 in the present disclosure and the cap analogs N-7413, compound 14, and m6A in the prior art was intramuscularly injected into female BALB/C mice aged 4 to 6 weeks and weighing 17 to 19 g. At specific time points after administration (6 hours, 12 hours, 24 hours, 48 hours, 96 hours, and 168 hours), the mice were intraperitoneally injected with fluorescence imaging substrate. The mice were then allowed to move freely for 5 minutes, followed by detection of the average radiation intensity (corresponding to the amount of protein expression) of the protein expressed by LNP-carrying mRNA in the mice using an IVIS Spectrum small-animal in vivo imaging system.

T7 RNA polymerase [3] = biological target: T2, T7 RNA polymerase; assay: In vitro transcription yield of mRNA with cap analog (co-transcriptional capping); assay type: biochemical; design: in vitro transcription yield of mRNA: unit not given here; settings: for Yield per unit template: in vitro transcription, 1 μg DNA template, 20 μL system, 37° C. 2 hours
Description: (1) Capping synthesis using cap analogs
The plasmid was first linearized with plasmid linearizing enzyme, and then the linearized plasmid was purified.
(2) In vitro transcription and synthesis of mRNA
as §1, §2
(3) The transcription product was purified, and the in vitro transcription yield of mRNA was recorded.

[4] = 6 h after intramuscular injection of LNP Fluc-mRNA
[5] = 12 h after intramuscular injection of LNP Fluc-mRNA
[6] = 24 h after intramuscular injection of LNP Fluc-mRNA
[7] = 48 h after intramuscular injection of LNP Fluc-mRNA
[8] = 96 h after intramuscular injection of LNP Fluc-mRNA
[9] = 168 h after intramuscular injection of LNP Fluc-mRNA

T2 sequence (P00573 whole entry): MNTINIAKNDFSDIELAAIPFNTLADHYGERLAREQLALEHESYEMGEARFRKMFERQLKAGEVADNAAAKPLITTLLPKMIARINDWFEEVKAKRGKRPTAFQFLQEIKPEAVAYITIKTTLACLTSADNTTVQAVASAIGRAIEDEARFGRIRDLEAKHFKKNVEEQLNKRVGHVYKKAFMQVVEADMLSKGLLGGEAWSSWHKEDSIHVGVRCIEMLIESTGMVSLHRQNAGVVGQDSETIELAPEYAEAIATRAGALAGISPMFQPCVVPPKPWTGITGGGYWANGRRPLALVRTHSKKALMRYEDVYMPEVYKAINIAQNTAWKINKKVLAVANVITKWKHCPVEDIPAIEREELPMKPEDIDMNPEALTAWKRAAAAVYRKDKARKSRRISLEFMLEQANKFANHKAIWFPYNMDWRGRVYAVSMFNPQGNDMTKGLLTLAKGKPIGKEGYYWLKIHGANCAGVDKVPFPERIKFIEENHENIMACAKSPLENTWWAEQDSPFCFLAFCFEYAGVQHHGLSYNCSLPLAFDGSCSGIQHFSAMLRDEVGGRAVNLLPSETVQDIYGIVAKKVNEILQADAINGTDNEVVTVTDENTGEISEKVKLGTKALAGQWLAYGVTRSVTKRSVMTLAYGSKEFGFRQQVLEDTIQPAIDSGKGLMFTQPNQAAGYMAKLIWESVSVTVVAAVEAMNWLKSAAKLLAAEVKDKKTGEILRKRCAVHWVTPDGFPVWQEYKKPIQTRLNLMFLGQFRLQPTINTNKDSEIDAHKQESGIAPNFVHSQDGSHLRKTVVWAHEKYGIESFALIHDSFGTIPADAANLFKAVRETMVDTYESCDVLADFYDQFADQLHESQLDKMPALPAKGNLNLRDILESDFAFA

SMILES	Particle size [1]	PDI [1]	EE [1]	Decapping rate (%) of DCP2 enzyme (DCP2 enzyme)	Capping rate (T7 RNA polymerase [2])	Average radiation intensity (BALB/C mice; [4])	Average radiation intensity (BALB/C mice; 6 h after intramuscular injection of LNP Fluc-mRNA, listed as compound 14)	Average radiation intensity (BALB/C mice; [5])	Average radiation intensity (BALB/C mice; [6])	Average radiation intensity (BALB/C mice; [7])	Average radiation intensity (BALB/C mice; [8])	Average radiation intensity (BALB/C mice; [9])	Yield per unit template (T7 RNA polymerase [3])	in vitro transcription yield of mRNA (T7 RNA polymerase [3])
COC1C(OP(=O)([O-])OC[C@H]2O[C@@H](n3cnc4c(=O)[nH]c(N)nc43)C(O)C2O)[C@@H](COP(=O)(O)OP(=O)(O)OP(=O)(O)OC[C@]23COC(C2O)[C@H]([n+]2cn(C)c4c(=O)[nH]c(N)nc42)O3)O[C@H]1n1cnc2c(N)ncnc21 (stereo partly drawn) [Compound 14, reference compound]	102.2 nm	0.018	96.8%	28.8%	77.5%	2589500 p/s/cm^2/sr	2,589,500 p/s/cm^2/sr	1622075 p/s/cm^2/sr	1099050 p/s/cm^2/sr	946675 p/s/cm^2/sr	57270 p/s/cm^2/sr	17828 p/s/cm^2/sr	120.9 µg	
COCC1C(O)[C@H]([n+]2cn(C)c3c(=O)[nH]c(N)nc32)O[C@@H]1COP(=O)(O)OP(=O)(O)OP(=O)(O)OC[C@H]1O[C@@H](n2cnc3c(N)ncnc32)C(OC)C1OP(=O)([O-])OC[C@H]1O[C@@H](n2cnc3c(=O)[nH]c(N)nc32)C(O)C1O (stereo partly drawn) [HN3002, reference compound]	91.03 nm	0.032	94.8%	23.2%										
COC1C(OP(=O)([O-])OC[C@H]2O[C@@H](n3cnc4c(=O)[nH]c(N)nc43)C(O)C2O)[C@@H](COP(=O)(O)OP(=O)(O)OP(=O)(O)OC[C@H]2O[C@@H]([n+]3cn(C)c4c(=O)[nH]c(N)nc43)C(O)C2OC)O[C@H]1n1cnc2c(N)ncnc21 (stereo partly drawn) [N-7413, reference compound]	100.5 nm	0.041	95.4%	48.6%				1806125 p/s/cm^2/sr	906625 p/s/cm^2/sr	710545 p/s/cm^2/sr	68400 p/s/cm^2/sr	18233 p/s/cm^2/sr		
COC1C(OP(=O)([O-])OC[C@H]2O[C@@H](n3cnc4c(=O)[nH]c(N)nc43)C(O)C2O)[C@@H](COP(=O)(O)OP(=O)(O)OP(=O)(O)OC[C@]23O[C@@H]([n+]4cn(C)c5c(=O)[nH]c(N)nc54)C(O[C@H]2CCN(C)C)C3O)O[C@H]1n1cnc2c(N)ncnc21 (stereo partly drawn) [YK-CAP-001]	86.13 nm	0.044	95.7%	26.3%	73.1%	1728300 p/s/cm^2/sr		985800 p/s/cm^2/sr	612430 p/s/cm^2/sr	578750 p/s/cm^2/sr	43485 p/s/cm^2/sr	10467 p/s/cm^2/sr	89.3 µg	89.3
COC1C(OP(=O)([O-])OC[C@H]2O[C@@H](n3cnc4c(=O)[nH]c(N)nc43)C(O)C2O)[C@@H](COP(=O)(O)OP(=O)(O)OP(=O)(O)OC[C@]23O[C@@H]([n+]4cn(C)c5c(=O)[nH]c(N)nc54)C(O[C@H]2CC#N)C3O)O[C@H]1n1cnc2c(N)ncnc21 (stereo partly drawn) [YK-CAP-002]	86.31 nm	0.058	93.1%	24.6%	70.2%	1466925 p/s/cm^2/sr		801300 p/s/cm^2/sr	278665 p/s/cm^2/sr	320725 p/s/cm^2/sr	20893 p/s/cm^2/sr	9768 p/s/cm^2/sr	103.1 µg	
CNc1ncnc2c1ncn2[C@@H]1O[C@H](COP(=O)(O)OP(=O)(O)OP(=O)(O)OC[C@H]2O[C@@H]([n+]3cn(C)c4c(=O)[nH]c(N)nc43)C(O)C2O)C(OP(=O)([O-])OC[C@H]2O[C@@H](n3cnc4c(=O)[nH]c(N)nc43)C(O)C2O)C1OC (stereo partly drawn) [m6A, reference compound]	89.99 nm	0.047	94.2%	27.5%				702940 p/s/cm^2/sr	201585 p/s/cm^2/sr	238500 p/s/cm^2/sr	33586 p/s/cm^2/sr	12000 p/s/cm^2/sr		
